Measured values published in patent US20120052122A1, “Treatment Of Chronic Obstructive Pulmonary Disease With Phosphodiesterase-4 Inhibitor” (Nycomed GmbH, priority 2010, published 2012).
Where two headings read alike, the source gives them in different places.

Key:
[1] = system: COPD patients; experiment: Adverse events in 14 double-blind, placebo-controlled Phase II/III studies; type: in vivo, human; conditions: 14 Phase II/III studies, N = 6563
Excerpt: The population was 25 to 93 years old (median age 64), 72% were male, and 89% were white.

[2] = system: PDE3; experiment: PDE3 inhibition; type: biochemical; conditions: at the doses administered
[3] = system: rabbits; experiment: Embryo-fetal development studies in rabbits; type: in vivo, rabbit; conditions: up to 0.8 mg/kg/day
[4] = Solubility in water; type: physicochemical; conditions: drug substance
[5] = system: hamster; experiment: Two year hamster carcinogenicity studies; type: in vivo
Experimental: No other treatment-related neoplastic findings were observed. Overall, the tumor-free level in the animals was 4 mg/kg/day.

[6] = Standard battery of genotoxicity assays in vitro and in vivo
[7] = system: patients with COPD and chronic cough and sputum production
Excerpt: Their postbronchodilator FEV1 was 50% or less than the predicted value.
Patients could use short acting β2 agonists as needed and could continue treatment with long acting β2 agonists or short acting anti-cholinergic drugs at stable doses. However, inhaled corticosteroids and long acting anti-cholinergic drugs were not allowed during the study. Eligible patients were stratified according to their use of long acting β2 agonists and smoking status.
The primary endpoints were the change in prebronchodilator FEV1 during treatment and the rate of COPD exacerbations, defined as moderate if they required treatment with oral or parenteral corticosteroids, or severe if they were associated with hospital admission or death. […] Additionally, data for the total number of COPD exacerbations (as defined above together with episodes treated with antibiotics alone) and a range of spirometric outcomes were gathered.
A negative binominal regression analysis was done to assess the robustness of the results against the distributional assumptions. Data were analyzed in the two studies separately and in a pooled analysis. Changes were analyzed from baseline in prebronchodilator and postbronchodilator FEV1 using a repeated-measures analysis of covariance with all data available for patients during the 52-week treatment. (Reference 18) A Cox proportional hazard model was used to test for differences in time-to-event data. For analysis of the concentrations of C-reactive protein, an analysis of covariance model was used, with the method of the last observation carried forward for the log-transformed data for concentrations. For the regression models (analysis of covariance, Cox, and Poisson), the covariates included treatment, age, sex, smoking status (current or former smoker), country, and treatment with long acting β2 agonists. In the Cox analysis, country was included as a stratum. In the Poisson regression analysis, baseline postbronchodilator FEV1 (% of predicted value) was also included as a covariate. To address the issue of multiple comparisons, a hierarchical hypothesis-testing approach was adopted, If the primary outcomes were positive, the key secondary outcomes were tested in the order above. If a significant difference between treatments was not obtained for the primary or key secondary outcomes, all subsequent analyses were considered exploratory.
In the one-year trials, long-acting beta-2 agonists (LABA) were allowed and used in approximately 50% of the study population. The use of inhaled corticosteroids was terminated at randomization. Lung function (pre-bronchodilator forced expiratory volume in one second, FEV1) and the rate of moderate exacerbations (requiring intervention with systemic glucocorticosteroids) or severe exacerbations (resulting in hospitalization and/or leading to death) were primary endpoints. Secondary endpoints in both studies included further evaluation of exacerbations and lung function parameters, dyspnea, and use of reliever medication.

[8] = system: CYP 1A2, 2A6, 2B6, 2C8, 2C9, 2C19, 2D6, 2E1, 3A4/5, or 4A9/11
[9] = system: patients with COPD; conditions: Reference 13; cited from earlier work
[10] = system: human airway epithelial cells; experiment: MUC5AC formation; conditions: human airway epithelial cells and animal experiments
[11] = system: CYP 2B6; experiment: CYP 2B6 induction in vitro
[12] = system: cytokines and reactive oxygen species from cells and lung tissue; experiment: Release of inflammatory mediators in experimental animals; conditions: cells and lung tissue in vitro and in vivo
[13] = Blood-brain barrier penetration of radiolabeled roflumilast in rats
[14] = Pharmacokinetics in special populations (total PDE4 inhibitory activity); conditions: in vivo
[15] = M2-124 and M2-125 pooled, 52 weeks
[16] = M2-124 and M2-125 pooled, 52 weeks, mean
[17] = M2-124 and M2-125 pooled, 52 weeks, mean (SE)
[18] = M2-124 and M2-125 pooled, Roflumilast vs Placebo
[19] = M2-124 and M2-125 pooled, Roflumilast vs Placebo, listed as roflumilast

SMILES: O=C(Nc1c(Cl)cncc1Cl)c1ccc(OC(F)F)c(OCC2CC2)c1 [Roflumilast, N-(3,5-dichloropyridin-4-yl)-3-cyclopropylmethoxy-4-difluoromethoxy-benzamide]
- Treatment-emergent adverse event Diarrhea, incidence ([1]; 250 mcg or 500 mcg per day): 10%
- Treatment-emergent adverse event Abdominal pain, incidence [1]: 2%
- Treatment-emergent adverse event Back pain, incidence [1]: 3%
- Treatment-emergent adverse event Decreased appetite, incidence [1]: 2%
- Treatment-emergent adverse event Dizziness, incidence [1]: 2%
- Treatment-emergent adverse event Gastritis, incidence [1]: 1%
- Treatment-emergent adverse event Headache, incidence [1]: 4%
- Treatment-emergent adverse event Insomnia, incidence [1]: 2%
- Treatment-emergent adverse event Nausea, incidence [1]: 5%
- Treatment-emergent adverse event Tremor, incidence [1]: 2%
- Treatment-emergent adverse event Weight decreased, incidence [1]: 6%
- Inhibitory effect on PDE3 [2]: no appreciable inhibitory effect
- Teratogenicity ([3]; oral): not teratogenic
- Post-implantive losses [3]: not seen
- Solubility in water [4]: poorly soluble
- Neoplastic findings ([5]; hamster, up to 16 mg/kg/day, two year): nasal neoplasms were caused by a drug metabolite, which is absent in humans
- Tumor-free level in the animals ([5]; overall): 4 mg/kg/day
- Genotoxic potential [6]: did not reveal a genotoxic potential
- Change in C-reactive protein from baseline to last postrandomisation visit ([7]; M2-124 and M2-125 pooled): 1.1; n = 1371 mg/L
- Median time to first exacerbation (moderate or severe) [IQR] ([7]; M2-124 and M2-125 pooled): 80.0 (28.0-190.0) days
- Median time to second exacerbation (moderate or severe) [IQR] ([7]; M2-124 and M2-125 pooled): 177.0 (92.0-262.0) days
- Time to mortality (mean, SD) ([7]; M2-124 and M2-125 pooled): 206.1 days
- Exacerbations moderate or severe, mean rate [95% CI] [7, 15]: 1.14 (1.05-1.24); per patient, per year
- Exacerbations moderate, mean rate [95% CI] [7, 15]: 0.99 (0.91-1.08); per patient, per year
- Exacerbations severe, mean rate [95% CI] [7, 15]: 0.12 (0.10-0.16); per patient, per year
- Exacerbations treated with systemic corticosteroids, antibiotics, or both, mean rate [95% CI] [7, 15]: 1.13 (1.04-1.23); per patient, per year
- Change in postbronchodillator FEV1/FVC [7, 16]: 0.517%
- Change in prebronchodillator FEV1/FVC [7, 16]: 0.247%
- Change in postbronchodillator FEF25-75 [7, 17]: 21 (4); mL/s
- Change in postbronchodillator FEV1 [7, 17]: 50 (6); mL
- Change in postbronchodillator FVC [7, 17]: 67 (10); mL
- Change in postbronchodillator PEF [7, 17]: 4.93 (1.05); L/min
- Change in prebronchodillator FEF25-75 [7, 17]: 16 (4); mL/s
- Change in prebronchodillator FEV1 [7, 17]: 40 (6); mL
- Change in prebronchodillator FVC [7, 17]: 64 (10); mL
- Change in prebronchodillator PEF [7, 17]: 3.69 (1.02); L/min
- Change in C-reactive protein from baseline to last postrandomisation visit, difference [7, 18]: Difference 1.0 mg/L
- Change in postbronchodillator FEF25-75, difference [7, 18]: Difference 19 mL/s
- Change in postbronchodillator FEV1, difference [7, 18]: Difference 55 mL
- Change in postbronchodillator FEV1/FVC, difference [7, 18]: Difference 0.426%
- Change in postbronchodillator FVC, difference [7, 18]: Difference 101 mL
- Change in postbronchodillator PEF, difference [7, 18]: Difference 4.72 L/min
- Change in prebronchodillator FEF25-75, difference [7, 18]: Difference 20 mL/s
- Change in prebronchodillator FEV1, difference [7, 18]: Difference 48 mL
- Change in prebronchodillator FEV1/FVC, difference [7, 18]: Difference 0.393%
- Change in prebronchodillator FVC, difference [7, 18]: Difference 98 mL
- Change in prebronchodillator PEF, difference [7, 18]: Difference 3.53 L/min
- EQ-5D total score, difference [7, 18]: 0.0023
- TDI focal score, difference [7, 18]: Difference 0.3
- Change in postbronchodillator FEV1, difference [7, 19]: 55 mL
- Change in prebronchodillator FEV1, difference [7, 19]: 48 mL
- TDI focal score, difference [7, 19]: 0.25
- EQ-5D total score ([7]; M2-124 and M2-125 pooled, mean): 0.0072
- TDI focal score ([7]; M2-124 and M2-125 pooled, mean (SE)): 0.7 (0.1);
- Probability of withdrawal due to adverse events in the first 12 weeks ([7]; human, in vivo): 8%
- Subsequent probability of withdrawal because of adverse events ([7]; human, in vivo): 9%
- Adverse events reported, patients ([7]; human, in vivo, 52 weeks): 1040 (67%) number (%)
- Atrial fibrillation, patients ([7]; human, in vivo, 52 weeks): 17 (1%) number (%)
- Discontinuations associated with adverse events ([7]; human, in vivo, 52 weeks): 219 [14%] number [%]
- Reported cardiovascular adverse events ([7]; human, in vivo, 52 weeks): 108 [7%] number [%]
- Serious adverse events reported, patients ([7]; human, in vivo, 52 weeks): 301 (19%) number (%)
- Vomiting, patients ([7]; human, in vivo, 52 weeks): 17 (1%) number (%)
- Incidence of pneumonia or other pulmonary infections ([7]; in vivo): did not increase
- Mean absolute weight change over the 1-year period ([7]; in vivo): -2.1 kg
- Neurological or cardiac toxicity ([7]; in vivo): No significant neurological or cardiac toxicity
- Patients with a decrease of body weight ([7]; in vivo): 62%
- Weight loss in patients not reporting diarrhea, nausea, vomiting, or headache ([7]; in vivo): 2.02 kg
- Weight loss in patients reporting diarrhea, nausea, vomiting, or headache ([7]; in vivo): 2.60 kg
- Number of patients experiencing a moderate exacerbation ([7]; pooled): 624
- Number of patients experiencing a severe exacerbation ([7]; pooled): 157
- Estimated rate of moderate or severe exacerbations per patient per year, lower than placebo ([7]; pooled analysis): 17%
- Exacerbations (excluding severe events) requiring systemic corticosteroids or antibiotics, or both, reduction vs placebo ([7]; pooled analysis): 16%
- Mean prebronchodilator FEV1 increase with long acting β2 agonist ([7]; pooled, compared to placebo, concomitant LABA): 46 mL
- Mean prebronchodilator FEV1 increase without long acting β2 agonist ([7]; pooled, compared to placebo, no concomitant LABA): 50 mL
- Inhibition of CYP 1A2, 2A6, 2B6, 2C8, 2C9, 2C19, 2D6, 2E1, 3A4/5, or 4A9/11 [8]: do not inhibit
- Airway inflammation, sputum neutrophil and eosinophil counts [9]: reduces airway inflammation
- Formation of MUC5AC [10]: inhibited
- Induction of CYP 2B6 [11]: weak induction
- Release of inflammatory mediators (cytokines and reactive oxygen species) [12]: suppressed
- Penetration across the blood-brain barrier [13]: low penetration
- Total PDE4 inhibitory activity in smokers [14]: slightly decreased
- Total PDE4 inhibitory activity in the elderly [14]: increased
- Total PDE4 inhibitory activity in women compared with men [14]: increased
